Source: PMC10584882 (Communications Biology, 2023)
Where “and” joins values, the source holds several entries; their conditions need not be identical. Equal values may be shown once.

What was measured:
CatL [1] = biological target: T1, CatL (Homo sapiens, UniProt P07711); assay: Reversibility of covalent cathepsin inhibition (CatL, 60 min incubation); assay type: biochemical; settings: 1 nM CatL, 1–80 nM inhibitor, 37 °C
T1 construct: made in house
Text: We observed no increase in relative inhibition over time, thus concluding that the covalent bond between cathepsins and inhibitors is reversible.

CatL [2] = biological target: T1, CatL; assay: Cathepsin inhibition test, CatL; assay type: biochemical; settings: for Residual activity (Vi/V0): Fig. S3 panel b, single replicates
SARS-CoV-2 [3] = assay: Viral loading determination via RT-qPCR in VERO-CCL81 cells; assay type: cell-based; settings: for Viral titer (% control): VERO CCL81, RT-qPCR, experiments 1 and 2
SARS-CoV-2-GFP = system: SARS-CoV-2-GFP; set-up: method as in PMID 33811162; settings: VERO E6 cell-based SARS-CoV-2 infection assays; cited from earlier work
VERO-CCL81 cells = assay: Cell viability assay (CellTiter-Glo), VERO-CCL81; assay type: cell-based; settings: for Cell viability (% control): VERO CCL81, 72 h, replicates of experiments 1 and 2
Method: (§1) VERO-CCL81 was seeded in 96-well plates at a density of 1.5×10^4 cells/well, while LC-HK2 was seeded at a density of 3×10^4 cells/well, following 24 h incubation at 37 °C and 5% CO2 atmosphere. The cell culture media was replaced by serial dilutions of the compounds and the cell viability was determined 72 h post-treatment via CellTiter-Glo® Luminescent Cell Viability Assay (Promega), following the manufacturer’s instructions. Luminescent signal was recorded using a CLARIOstar multi-mode microplate reader (BMG Labtech, Germany). Graphs were generated using GraphPad Prism software version 8.0 (La Jolla, CA, USA, www.graphpad.com). Samples deemed to be technical failures and extreme outlier were removed.

SARS-CoV-2 [4] = assay: Viral loading determination via RT-qPCR in LC-HK2 cells; assay type: cell-based; settings: for Viral titer (% control): LC-HK2, RT-qPCR
LC-HK2 cells = assay: Cell viability assay (CellTiter-Glo), LC-HK2; assay type: cell-based, human; settings: for Cell viability (% control): LC-HK2, 72 h, replicates
Method: as §1

T1 sequence (P07711 114-333): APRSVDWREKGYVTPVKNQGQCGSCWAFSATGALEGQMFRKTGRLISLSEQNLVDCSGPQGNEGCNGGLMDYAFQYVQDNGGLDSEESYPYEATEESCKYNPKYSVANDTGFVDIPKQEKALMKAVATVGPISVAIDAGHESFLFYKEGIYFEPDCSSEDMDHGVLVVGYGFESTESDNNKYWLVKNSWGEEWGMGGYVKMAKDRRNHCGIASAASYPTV

CCCC[C@@H](C=O)NC(=O)[C@H](CC(C)C)NC(=O)OCc1ccccc1 [Calpeptin, reference compound]
reversibility of covalent bond to cathepsin (CatL [1]): reversible | Residual activity (Vi/V0) (CatL [2]; inhibitor 0.010 nM, 10 pM): 1.181 and 1.134 and 0.9277 and 1.059 and 0.8624 and 0.9348 and 0.9777 and 1.017 and 0.9832 and 0.6727 | Residual activity (Vi/V0) (CatL [2]; inhibitor 0.018 nM, 18 pM): 1.262 and 1.015 and 0.8756 and 0.9203 and 0.9271 and 0.9762 and 0.9712 and 1.058 and 1.013 and 1.061 | Residual activity (Vi/V0) (CatL [2]; inhibitor 0.032 nM, 32 pM): 1.274 and 1.3352 and 0.8294 and 0.9418 and 0.8372 and 0.9412 and 1.0025 and 0.9769 and 1.076 and 1.186 | Residual activity (Vi/V0) (CatL [2]; inhibitor 0.058 nM, 58 pM): 1.241 and 1.238 and 0.7232 and 0.8381 and 0.7506 and 0.9356 and 0.9293 and 0.9501 and 1.073 and 1.146 | Residual activity (Vi/V0) (CatL [2]; inhibitor 0.105 nM, 0.000105 µM): 1.299 and 0.9537 and 0.6352 and 0.6893 and 0.6342 and 0.9772 and 0.9319 and 0.9262 and 1.17 and 1.244 | Residual activity (Vi/V0) (CatL [2]; inhibitor 0.189 nM, 0.000189 µM): 1.276 and 0.7939 and 0.4796 and 0.5261 and 0.4831 and 0.8363 and 0.8485 and 0.8665 and 1.045 and 0.9948 | Residual activity (Vi/V0) (CatL [2]; inhibitor 0.340 nM, 0.00034 µM): 1.076 and 0.6362 and 0.1912 and 0.3311 and 0.2442 and 0.7013 and 0.6724 and 0.6039 and 0.9136 and 0.9341 | Residual activity (Vi/V0) (CatL [2]; inhibitor 0.612 nM, 0.000612 µM): 0.7699 and 0.3953 and 0.2966 and 0.328 and 0.2718 and 0.8608 and 0.8769 and 0.888 and 0.6121 and 0.7229 | Residual activity (Vi/V0) (CatL [2]; inhibitor 1.103 nM, 0.001103 µM): 0.6194 and 0.292 and 0.1922 and 0.2117 and 0.1777 and 0.7372 and 0.725 and 0.6702 and 0.5009 and 0.6045 | Residual activity (Vi/V0) (CatL [2]; inhibitor 1.985 nM, 0.001985 µM): 0.4333 and 0.2071 and 0.1127 and 0.1262 and 0.1102 and 0.4283 and 0.4219 and 0.4519 and 0.4308 and 0.4332 | Ki (CatL [2]; mean with standard deviation and 95% confidence interval, pH 5.5, 37 °C): 0.000131 µM | EC50 (SARS-CoV-2 [3]; Severe acute respiratory syndrome coronavirus 2, VERO-CCL81, RT-qPCR, 48 h post-infection, read-out: Viral titer EC50): 0.99 µM | Viral titer (% control) (SARS-CoV-2 [3]; 0.0781 μM): 100 % control | Viral titer (% control) (SARS-CoV-2 [3]; 0.1563 μM): 100 % control | Viral titer (% control) (SARS-CoV-2 [3]; 0.3125 μM): 100 % control and 79.17 % control | Viral titer (% control) (SARS-CoV-2 [3]; 0.625 μM): 59.82 % control and 89.92 % control | Viral titer (% control) (SARS-CoV-2 [3]; 1.25 μM): 52.69 % control and 49.08 % control | Viral titer (% control) (SARS-CoV-2 [3]; 2.5 μM): 27.29 % control and 39.96 % control | Viral titer (% control) (SARS-CoV-2 [3]; 5 μM): 41.34 % control and 28.43 % control | Viral titer (% control) (SARS-CoV-2 [3]; 10 μM): 15.97 % control and 10.75 % control | concentration giving high suppression of virus replication (SARS-CoV-2-GFP): below 100 nM | Cell viability (% control) (VERO-CCL81 cells; 0.0781 μM): 94.74 % control and 101.25 % control and 101.91 % control | Cell viability (% control) (VERO-CCL81 cells; 0.1563 μM): 97.56 % control and 99.32 % control and 100.01 % control | Cell viability (% control) (VERO-CCL81 cells; 0.3125 μM): 82.19 % control and 89.43 % control and 92.71 % control and 95.68 % control and 100.03 % control and 106.22 % control | Cell viability (% control) (VERO-CCL81 cells; 0.625 μM): 82.29 % control and 95.76 % control and 97.52 % control and 95.98 % control and 103.97 % control and 109.96 % control | Cell viability (% control) (VERO-CCL81 cells; 1.25 μM): 89.05 % control and 94.79 % control and 98.25 % control and 97.91 % control and 104.77 % control and 107.22 % control | Cell viability (% control) (VERO-CCL81 cells; 2.5 μM): 86.26 % control and 94.8 % control and 103.32 % control and 94.24 % control and 103.27 % control and 108.67 % control | Cell viability (% control) (VERO-CCL81 cells; 5 μM): 90.56 % control and 101.72 % control and 106.83 % control and 95.97 % control and 102.4 % control and 105.71 % control | Cell viability (% control) (VERO-CCL81 cells; 10 μM): 85.37 % control and 97.81 % control and 103.34 % control and 84.83 % control and 98.42 % control and 92.92 % control | cytotoxicity (in words) (VERO-CCL81 cells; VERO-CCL81, 72 h): no cytotoxicity up to low micromolar concentrations | Viral titer (% control) (SARS-CoV-2 [4]; 0.0006 μM): 100 % control | Viral titer (% control) (SARS-CoV-2 [4]; 0.0012 μM): 100 % control | Viral titer (% control) (SARS-CoV-2 [4]; 0.0024 μM): 100 % control | Viral titer (% control) (SARS-CoV-2 [4]; 0.0049 μM): 100 % control | Viral titer (% control) (SARS-CoV-2 [4]; 0.0098 μM): 100 % control | Viral titer (% control) (SARS-CoV-2 [4]; 0.0195 μM): 100 % control | Viral titer (% control) (SARS-CoV-2 [4]; 0.0391 μM): 100 % control | Viral titer (% control) (SARS-CoV-2 [4]; 0.0781 μM): 100 % control | Viral titer (% control) (SARS-CoV-2 [4]; 0.1563 μM): 100 % control and 71.76 % control | Viral titer (% control) (SARS-CoV-2 [4]; 0.3125 μM): 77.19 % control and 100 % control | Viral titer (% control) (SARS-CoV-2 [4]; 0.625 μM): 85.89 % control and 100 % control | Viral titer (% control) (SARS-CoV-2 [4]; 1.25 μM): 75.06 % control and 100 % control | Viral titer (% control) (SARS-CoV-2 [4]; 100 μM): 0 % control | EC50 (SARS-CoV-2 [4]; Severe acute respiratory syndrome coronavirus 2, LC-HK2, RT-qPCR, 72 h post-infection, read-out: Viral titer EC50): 1.7 µM | cytotoxicity (in words) (LC-HK2 cells; LC-HK2, 72 h): no cytotoxicity up to low micromolar concentrations | Cell viability (% control) (LC-HK2 cells; 0.0006 μM): 102.39 % control and 97.09 % control and 90.2 % control | Cell viability (% control) (LC-HK2 cells; 0.0012 μM): 105.44 % control and 96.04 % control and 89.58 % control | Cell viability (% control) (LC-HK2 cells; 0.0024 μM): 109.38 % control and 90.68 % control and 83.12 % control | Cell viability (% control) (LC-HK2 cells; 0.0049 μM): 106.45 % control and 86.68 % control and 80.82 % control | Cell viability (% control) (LC-HK2 cells; 0.0098 μM): 103.61 % control and 82.95 % control and 76.92 % control | Cell viability (% control) (LC-HK2 cells; 0.0195 μM): 100.9 % control and 86.53 % control and 77.59 % control | Cell viability (% control) (LC-HK2 cells; 0.0391 μM): 106.77 % control and 84.3 % control and 75.79 % control | Cell viability (% control) (LC-HK2 cells; 0.0781 μM): 97.38 % control and 80.51 % control and 79.02 % control and 97.54 % control and 99.61 % control | Cell viability (% control) (LC-HK2 cells; 0.1563 μM): 92.74 % control and 97.96 % control and 106.67 % control and 94.71 % control and 97.7 % control and 98.23 % control | Cell viability (% control) (LC-HK2 cells; 0.3125 μM): 85.53 % control and 96.17 % control and 104.18 % control and 94.18 % control and 98.15 % control and 95.62 % control | Cell viability (% control) (LC-HK2 cells; 0.625 μM): 92.03 % control and 97.64 % control and 102.17 % control and 95.74 % control and 98.42 % control and 100.55 % control | Cell viability (% control) (LC-HK2 cells; 1.25 μM): 89.04 % control and 94.62 % control and 99.72 % control and 93.66 % control and 97.57 % control and 100.65 % control | Cell viability (% control) (LC-HK2 cells; 2.5 μM): 87.58 % control and 93.98 % control and 97.34 % control and 91.87 % control and 96.78 % control and 96.3 % control | Cell viability (% control) (LC-HK2 cells; 5 μM): 84.13 % control and 88.53 % control and 93.5 % control and 84.79 % control and 90.37 % control and 89.81 % control | Cell viability (% control) (LC-HK2 cells; 10 μM): 82.98 % control and 84.95 % control and 87.98 % control and 79.13 % control and 81.86 % control and 83.76 % control | Cell viability (% control) (LC-HK2 cells; 100 μM): 28.28 % control and 43.21 % control and 44.92 % control
